Source: publication doi:10.1101/2020.02.10.942029v1 (biorxiv, 2020)

Biological target: human CatSper (CatSper channel, cation channel of sperm) (Homo sapiens, UniProt Q7RTX7+Q86XQ3+Q8NEC5+Q96P56)
Assay: whole-cell patch clamp of human sperm
Assay type: cell-based
Conditions: activator; 20 μM, NaDVF, pHi 7.3, room temperature

- fold current enhancement at -80 mV: 1.48 ± 0.47 fold
SMILES: CCCCCCOC(=O)[C@]1(O)C[C@@H]2O[C@@]1(C)n1c3ccccc3c3c4c(c5c6ccccc6n2c5c31)C(=O)NC4 [KT 5720]
